Measurements: US11753433B2, “Methods of synthesizing substituted purine compounds” (Epizyme, Inc., priority 2013, dated 2023)

How the values were obtained:
Format in all cases: physicochemical
Solution photostability = test: Solution photostability
Protocol: Solution Photostability: Weighed ˜1 mg of Form B and dissolved in 3 solutions at different pHs (0.01 N HCl, 0.01 N NaOH and water). Methanol was added as a co-solvent to dissolve Form B in solutions (i.e., 10% (v/v) methanol in 0.01 N HCl, 20% (v/v) in water and 30% (v/v) in 0.01 N NaOH), the final concentration was 0.1 mg/mL. For each solution, 1 sample and 1 control covered in foil were put into the photo chamber for Vis study (2 vials total for each solution). Measure the concentration and monitor the degradation.

[1] = Equilibrium solubility in organic solvents; conditions: RT; for solubility at 24 h: organic solvent or mixture, thermodynamic from solid
Protocol: Approximately 10 mg of Form B was weighed into a 1-ml glass vial followed by addition of 0.5 ml relevant media. Each sample was continuously stirred using a magnetic stir bar at 25° C. for 24 h. The suspension was then filtered using a nylon membrane with a pore diameter of 0.22 μm. The filtrates were diluted for HPLC analysis and final pH was measured. The solid residue of each sample was collected for XRPD analysis. The solubility of Form B was also determined in commonly used organic solvents (diluents or HPLC mobile phase). The solubility data summarized in Table 10 indicates Form B is quite soluble in MeOH, EtOH, and IPA.

[2] = Equilibrium solubility in aqueous media; conditions: for solubility at 24 h: 25 °C, thermodynamic from solid; for Remaining Solid: XRPD
Protocol: Approximately 10 mg of Form B was weighed into a 1-ml glass vial followed by addition of 0.5 ml relevant media. Each sample was continuously stirred using a magnetic stir bar at 25° C. for 24 h. The suspension was then filtered using a nylon membrane with a pore diameter of 0.22 μm. The filtrates were diluted for HPLC analysis and final pH was measured. The solid residue of each sample was collected for XRPD analysis.
The solubilities of Form B in water and five different pH values at 25° C. were determined by HPLC after 24 h equilibration. Solubility data for Form B was obtained across the physiological pH by using buffer solutions from pH 2 to pH 10.
Preparation of pH Buffers • pH 2: 0.01N HCl solution. Dilute 1 ml of 1 N HCl with H2O up to a total volume of 100 ml. Measure the pH and precisely adjust to pH=2.00 using a few microliters of 1N HCl or 1N NaOH. • pH 4: 50 mM Na citrate buffer. Prepare a 50 mM citric acid solution by diluting 10 ml of 1N citric acid with H2O up to a total volume of 200 ml. Slowly add solid NaOH under stirring to increase the pH to 3.8-4.0 and use a few microliters of 1N NaOH for final adjustment to pH 4.00. • pH 6: 50 mM Na citrate buffer. Use the same procedure as the pH 4 buffer and adjust to pH=6.00 • pH 8: 50 mM Na phosphate buffer. Prepare a 50 mM NaH2PO4 solution by dissolving 6.00 g NaH2PO4 in 1 L of H2O and a 50 mM Na2HPO4 solution by dissolving 7.10 g in 1 L of H2O. Mix 10 ml of the NaH2PO4 solution with 140 ml of the Na2HPO4 solution in a beaker. Adjust to pH 8.00 by addition of small amounts of 50 mM NaH2PO4 or Na2HPO4 solution. • pH 10: 50 mM Na carbonate buffer. Prepare a 50 mM carbonate solution by dissolving 840 mg of sodium bicarbonate (NaHCO3) in about 180 ml of H2O. Slowly adjust the pH to 10.0±0.1 by addition of 1N NaOH. Add water to reach the total volume of 200 ml and adjust to pH 10.00 with 1N NaOH.

[3] = Slurry experiments using Form B and Form C (relative stability); conditions: RT
Protocol: The relative stability between Form B and Form C was investigated as a function of water activity at room temperature using ACN/H2O. In general, about 10-30 mg Form B was added to a 5-ml glass vial with 0.5 ml corresponding solvents to get suspensions at room temperature. Then 10-30 mg Form C was added to the suspensions which were kept stirring for 24 h. The water activity was calculated using the UNIFAC model.

[4] = 0.01N HCl Dark, Vis Stability (1.2 Mil lux-hours)
[5] = 0.01N HCl Dark, Vis-UV Stability (1.2 Mil lux-hours + 200 Watt-hours/m^2)
[6] = 0.01N HCl Light, Vis Stability (1.2 Mil lux-hours)
[7] = 0.01N HCl Light, Vis-UV Stability (1.2 Mil lux-hours + 200 Watt-hours/m^2)
[8] = 0.01N NaOH Dark, Vis Stability (1.2 Mil lux-hours)
[9] = 0.01N NaOH Dark, Vis-UV Stability (1.2 Mil lux-hours + 200 Watt-hours/m^2)
[10] = 0.01N NaOH Light, Vis Stability (1.2 Mil lux-hours), precipitation observed
[11] = 0.01N NaOH Light, Vis-UV Stability (1.2 Mil lux-hours + 200 Watt-hours/m^2), precipitation observed
[12] = H2O Dark, Vis Stability (1.2 Mil lux-hours)
[13] = H2O Dark, Vis-UV Stability (1.2 Mil lux-hours + 200 Watt-hours/m^2)
[14] = H2O Light, Vis Stability (1.2 Mil lux-hours)
[15] = H2O Light, Vis-UV Stability (1.2 Mil lux-hours + 200 Watt-hours/m^2)
[16] = 0.01N HCl, pH (initial) 2.0, RT, 24 h
[17] = 50 mM Na carbonate buffer, pH (initial) 10.0, RT, 24 h
[18] = 50 mM Na phosphate buffer, pH (initial) 8.0, RT, 24 h
[19] = 50 mM sodium citrate, pH (initial) 4.0, RT, 24 h
[20] = 50 mM sodium citrate, pH (initial) 6.0, RT, 24 h

For `CC(C)N(C[C@H]1O[C@@H](n2cnc3c(N)ncnc32)[C@H](O)[C@@H]1O)[C@H]1C[C@@H](CCc2nc3cc(C(C)(C)C)ccc3[nH]2)C1` [Form B, (2R,3R,4S,5R)-2-(6-amino-9H-purin-9-yl)-5-((((1r,3S)-3-(2-(5-(tert-butyl)-1H-benzo[d]imidazol-2-yl)ethyl)cyclobutyl)(isopropyl)amino)methyl)tetrahydrofuran-3,4-diol trihydrate], the “% area” value (Solution photostability; [4]) was 99.4%, the “% claim” value (Solution photostability; [4]) was 100.0% and the “Final pH” value (Solution photostability; [4]) was 2.1. For the same molecule, the “% area” value (Solution photostability; [5]) was 99.9%, the “% claim” value (Solution photostability; [5]) was 100.0% and the “Final pH” value (Solution photostability; [5]) was 2.1. The “% area” value (Solution photostability; [6]) was 98.5%, the “% claim” value (Solution photostability; [6]) was 98.8% and the “Final pH” value (Solution photostability; [6]) was 2.1. For the same molecule, the “% area” value (Solution photostability; [7]) was 99.9%, the “% claim” value (Solution photostability; [7]) was 99.9% and the “Final pH” value (Solution photostability; [7]) was 2.1. For the same molecule, the “% area” value (Solution photostability; [8]) was 99.7%, the “% claim” value (Solution photostability; [8]) was 100.0% and the “Final pH” value (Solution photostability; [8]) was 11.6. For the same molecule, the “% area” value (Solution photostability; [9]) was 100.0%, the “% claim” value (Solution photostability; [9]) was 100.0% and the “Final pH” value (Solution photostability; [9]) was 11.7. The “Final pH” value (Solution photostability; 0.01N NaOH Light, Vis Stability (1.2 Mil lux-hours)) was 11.7, the “% area” value (Solution photostability; [10]) was 99.6% and the “% claim” value (Solution photostability; [10]) was 44.5%. For the same molecule, the “Final pH” value (Solution photostability; 0.01N NaOH Light, Vis-UV Stability (1.2 Mil lux-hours + 200 Watt-hours/m^2)) was 11.7, the “% area” value (Solution photostability; [11]) was 99.3% and the “% claim” value (Solution photostability; [11]) was 66.3%. For the same molecule, the “% area” value (Solution photostability; [12]) was 100.0%, the “% claim” value (Solution photostability; [12]) was 100.0% and the “Final pH” value (Solution photostability; [12]) was 7.7. The “% area” value (Solution photostability; [13]) was 100.0%, the “% claim” value (Solution photostability; [13]) was 100.0% and the “Final pH” value (Solution photostability; [13]) was 8.1. For the same molecule, the “% area” value (Solution photostability; [14]) was 99.6%, the “% claim” value (Solution photostability; [14]) was 98.5% and the “Final pH” value (Solution photostability; [14]) was 7.3. The “% area” value (Solution photostability; [15]) was 99.3%, the “% claim” value (Solution photostability; [15]) was 94.7% and the “Final pH” value (Solution photostability; [15]) was 7.3. For the same molecule, the “observation in solution photostability study” value (Solution photostability; all solutions in 0.01N NaOH) was “Precipitation was observed”, the “solution photostability (in words)” value (Solution photostability; in water and 0.01N HCl solution, UV/Vis exposure) was “stable upon exposure to UV/Vis” and the “Remaining Solid” value ([1]; Acetone) was “Form B”. For the same molecule, the “Remaining Solid” value ([1]; Acetonitrile) was “Form B”, the “Remaining Solid” value ([1]; Ethanol) was “No solid obtained” and the “Remaining Solid” value ([1]; Isopropanol) was “No solid obtained”. The “solubility (in words)” value ([1]; MeOH, EtOH, and IPA) was “quite soluble”, the “Remaining Solid” value ([1]; Methanol) was “No solid obtained” and the solubility at 24 h ([1]; Acetone) was 23900 µg/mL. For the same molecule, the solubility at 24 h ([1]; Acetonitrile) was 1500 µg/mL, the solubility at 24 h ([1]; Ethanol) was greater than 87000 µg/mL and the solubility at 24 h ([1]; Isopropanol) was greater than 129000 µg/mL. For the same molecule, the solubility at 24 h ([1]; Methanol) was greater than 200000 µg/mL, the solubility at 24 h ([2]; 0.01N HCl solution, pH 2, simulated gastric fluid, 0.01N HCl, pH (initial) 2.0, RT, 24 h) was 3400 µg/mL and the “pH (final)” value [2, 16] was 5.5. The “Remaining Solid” value [2, 16] was “Form B”, the “pH (final)” value [2, 17] was 10.0 and the “Remaining Solid” value [2, 17] was “Form B”. For the same molecule, the Solubility ([2]; 50 mM Na carbonate buffer, pH (initial) 10.0, RT, 24 h, LOD 0.1 μg/ml) was “<LOD^”, the “pH (final)” value [2, 18] was 8.0 and the “Remaining Solid” value [2, 18] was “Form B”. The Solubility ([2]; 50 mM Na phosphate buffer, pH (initial) 8.0, RT, 24 h, LOD 0.1 μg/ml) was “<LOD^§”, the solubility at 24 h ([2]; 50 mM sodium citrate buffer, pH 4, aqueous buffer, 50 mM sodium citrate, pH (initial) 4.0, RT, 24 h) was 9800 µg/mL and the solubility at 24 h ([2]; 50 mM sodium citrate buffer, pH 6, aqueous buffer, 50 mM sodium citrate, pH (initial) 6.0, RT, 24 h) was 80 µg/mL. For the same molecule, the “pH (final)” value [2, 19] was 5.4, the “Remaining Solid” value [2, 19] was “Form B” and the Solubility ([2]; 50 mM sodium citrate, pH (initial) 4.0, RT, 24 h, trihydrate) was 9700 µg/mL. For the same molecule, the “pH (final)” value [2, 20] was 6.0, the “Remaining Solid” value [2, 20] was “Form B” and the “pH (final)” value ([2]; Water (unbuffered), RT, 24 h) was 5.6. For the same molecule, the “Remaining Solid” value ([2]; Water (unbuffered), RT, 24 h) was “Form B”, the solubility at 24 h ([2]; unbuffered water, water, RT) was 1.2 µg/mL and the solubility at 24 h ([2]; unbuffered water, water, Water (unbuffered), RT, 24 h) was 1.2 µg/mL. For the same molecule, the “water activity at which Form B is thermodynamically more stable than Form C” value [3] was no less than 0.30.
